According to ChEMBL document CHEMBL1201862, “PubChem BioAssay data set” (2004):
Calls of active or inactive are those of the source.

Tests used:
Type in all cases: functional
[1] = biological target: 5'-AMP-activated protein kinase catalytic subunit alpha-1 (Homo sapiens, UniProt Q13131)
[2] = biological target: ALK tyrosine kinase receptor (Homo sapiens, UniProt Q9UM73);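 further: ALK tested as one member of a kinase panel screen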
[3] = biological target: Death-associated protein kinase 3 (Homo sapiens, UniProt O43293);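 further: measured as one member of a kinome-wide profiling panel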
Aurora kinase A = biological target: T1, Aurora kinase A (Homo sapiens, UniProt O14965);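 further: value from the Navigating the Kinome kinase panel profiling, panel entry STK6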
T1 sequence (O14965 whole entry): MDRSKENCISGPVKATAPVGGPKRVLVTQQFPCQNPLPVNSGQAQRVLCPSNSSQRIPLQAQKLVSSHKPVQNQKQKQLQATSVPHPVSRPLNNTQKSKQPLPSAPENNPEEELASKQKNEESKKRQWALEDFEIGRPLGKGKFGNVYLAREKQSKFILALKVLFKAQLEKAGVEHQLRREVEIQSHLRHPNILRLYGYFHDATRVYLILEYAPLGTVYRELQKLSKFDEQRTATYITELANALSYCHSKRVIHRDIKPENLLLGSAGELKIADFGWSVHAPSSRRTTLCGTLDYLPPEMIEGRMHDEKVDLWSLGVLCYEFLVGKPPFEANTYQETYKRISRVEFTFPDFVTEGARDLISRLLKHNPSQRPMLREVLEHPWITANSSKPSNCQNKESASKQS

[4] = biological target: Tyrosine-protein kinase BTK (Homo sapiens, UniProt Q06187)
[5] = biological target: Mitogen-activated protein kinase kinase kinase kinase 2 (Homo sapiens, UniProt Q12851);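 further: measured as one member of a kinome-wide kinase panel, with MAP4K2 as the panel entry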
[6] = biological target: Tyrosine-protein kinase ABL1 (Homo sapiens, UniProt P00519)
[7] = biological target: Leucine-rich repeat serine/threonine-protein kinase 2 (Homo sapiens, UniProt Q5S007);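 further: value from a broad kinome-wide panel profiling study in which LRRK2 was one of the kinases tested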
[8] = biological target: Vascular endothelial growth factor receptor 1 (Homo sapiens, UniProt P17948);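 further: measured within a kinome-wide profiling panel, FLT1 as the panel member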
[9] = biological target: Cyclin-dependent kinase 9 (Homo sapiens, UniProt P50750);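 further: value from the CDK9 entry of a kinome-spanning kinase panel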
[10] = biological target: cAMP-dependent protein kinase catalytic subunit alpha (Homo sapiens, UniProt P17612)
[11] = biological target: Dual specificity tyrosine-phosphorylation-regulated kinase 1A (Homo sapiens, UniProt Q13627);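 further: measured against DYRK1A as one member of a broad kinome profiling panel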
[12] = biological target: Inhibitor of nuclear factor kappa-B kinase subunit epsilon (Homo sapiens, UniProt Q14164); assay: Navigating the Kinome. Panel member name: IKBKE
[13] = biological target: Calcium/calmodulin-dependent protein kinase type II subunit alpha (Homo sapiens, UniProt Q9UQM7); assay: Navigating the Kinome. Panel member name: CAMK2A
[14] = biological target: Mitogen-activated protein kinase 14 (Homo sapiens, UniProt Q16539);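 further: part of a kinome-wide panel, MAPK14 entry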
[15] = biological target: T2, Sentrin-specific protease 6 (Homo sapiens, UniProt Q9GZR1);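 further: Luminescence-based dose-response confirmatory assay of SENP6 inhibition, following up an ultra-high-throughput screen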
T2 sequence (Q9GZR1 whole entry): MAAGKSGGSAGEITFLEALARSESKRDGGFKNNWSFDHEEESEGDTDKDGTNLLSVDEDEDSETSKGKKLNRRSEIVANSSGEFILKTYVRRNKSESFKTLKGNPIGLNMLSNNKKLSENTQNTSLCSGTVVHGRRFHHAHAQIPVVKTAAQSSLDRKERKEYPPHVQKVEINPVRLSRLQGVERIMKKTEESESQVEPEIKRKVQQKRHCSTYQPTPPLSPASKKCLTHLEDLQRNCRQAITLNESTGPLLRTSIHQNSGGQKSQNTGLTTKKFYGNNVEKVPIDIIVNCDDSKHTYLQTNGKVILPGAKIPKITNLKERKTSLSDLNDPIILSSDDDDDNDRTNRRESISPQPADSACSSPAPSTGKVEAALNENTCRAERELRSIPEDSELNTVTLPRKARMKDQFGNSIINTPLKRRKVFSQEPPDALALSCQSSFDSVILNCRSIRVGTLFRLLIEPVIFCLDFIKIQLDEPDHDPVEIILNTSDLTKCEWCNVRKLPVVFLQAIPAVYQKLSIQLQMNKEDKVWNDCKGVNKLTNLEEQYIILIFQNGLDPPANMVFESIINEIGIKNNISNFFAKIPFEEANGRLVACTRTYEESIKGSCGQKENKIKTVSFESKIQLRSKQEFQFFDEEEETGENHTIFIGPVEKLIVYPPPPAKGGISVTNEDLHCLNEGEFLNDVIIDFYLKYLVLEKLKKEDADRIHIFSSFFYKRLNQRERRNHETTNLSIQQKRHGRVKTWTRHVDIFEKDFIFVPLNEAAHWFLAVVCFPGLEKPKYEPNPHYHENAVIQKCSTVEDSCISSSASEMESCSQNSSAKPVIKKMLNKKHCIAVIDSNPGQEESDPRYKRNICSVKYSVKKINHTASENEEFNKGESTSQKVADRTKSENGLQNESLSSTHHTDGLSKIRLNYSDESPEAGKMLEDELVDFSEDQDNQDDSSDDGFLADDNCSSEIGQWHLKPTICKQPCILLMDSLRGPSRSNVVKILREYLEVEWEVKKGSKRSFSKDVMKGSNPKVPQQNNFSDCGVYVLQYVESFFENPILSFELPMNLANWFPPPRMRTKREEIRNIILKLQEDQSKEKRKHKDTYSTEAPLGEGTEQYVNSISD

Orexin receptor type 2 = biological target: T3, Orexin receptor type 2 (Homo sapiens, UniProt O43614); assay: Counterscreen assay for antagonists of the orexin 1 receptor (OX1R; HCRTR1): Homogeneous Time Resolved Fluorescence (HTRF)-based cell-based dose response assay for antagonists of the orexin 2 receptor (OX2R; HCRTR2), run by assay provider.
T3 sequence (O43614 whole entry): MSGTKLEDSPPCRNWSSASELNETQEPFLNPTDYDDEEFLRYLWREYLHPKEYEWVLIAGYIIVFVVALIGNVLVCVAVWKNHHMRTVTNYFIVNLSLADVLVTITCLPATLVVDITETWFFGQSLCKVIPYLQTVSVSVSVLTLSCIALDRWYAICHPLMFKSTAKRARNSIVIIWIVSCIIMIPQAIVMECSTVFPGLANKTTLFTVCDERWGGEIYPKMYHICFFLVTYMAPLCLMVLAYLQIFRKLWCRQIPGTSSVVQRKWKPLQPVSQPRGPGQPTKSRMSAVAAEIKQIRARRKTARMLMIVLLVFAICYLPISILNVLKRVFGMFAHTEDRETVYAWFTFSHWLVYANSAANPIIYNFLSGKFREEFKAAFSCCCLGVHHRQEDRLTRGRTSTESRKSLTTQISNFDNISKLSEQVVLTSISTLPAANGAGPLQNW

Chain of Mitogen-activated protein kinase kinase kinase kinase 2 (Q12851 whole entry): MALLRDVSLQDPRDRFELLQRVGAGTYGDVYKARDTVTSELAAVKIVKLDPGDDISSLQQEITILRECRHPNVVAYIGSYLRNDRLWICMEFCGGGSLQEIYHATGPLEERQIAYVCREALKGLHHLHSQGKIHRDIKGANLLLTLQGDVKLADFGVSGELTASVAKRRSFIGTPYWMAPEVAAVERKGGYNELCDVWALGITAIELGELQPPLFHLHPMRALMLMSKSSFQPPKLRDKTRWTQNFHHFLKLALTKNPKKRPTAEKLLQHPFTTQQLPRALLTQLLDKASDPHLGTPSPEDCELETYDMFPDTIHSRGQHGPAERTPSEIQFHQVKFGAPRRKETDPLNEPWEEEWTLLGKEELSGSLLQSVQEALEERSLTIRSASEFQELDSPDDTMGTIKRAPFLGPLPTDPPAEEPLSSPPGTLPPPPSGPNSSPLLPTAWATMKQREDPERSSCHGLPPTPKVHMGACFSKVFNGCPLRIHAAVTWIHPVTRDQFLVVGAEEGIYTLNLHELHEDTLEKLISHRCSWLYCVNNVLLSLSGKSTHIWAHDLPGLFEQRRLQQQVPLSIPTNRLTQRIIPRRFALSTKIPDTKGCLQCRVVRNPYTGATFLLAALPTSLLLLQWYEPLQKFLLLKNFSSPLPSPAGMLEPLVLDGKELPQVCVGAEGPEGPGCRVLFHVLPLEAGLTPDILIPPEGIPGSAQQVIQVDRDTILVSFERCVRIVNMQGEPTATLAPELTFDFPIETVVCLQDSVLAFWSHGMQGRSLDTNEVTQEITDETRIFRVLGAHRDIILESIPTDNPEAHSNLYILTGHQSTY
Chain of Tyrosine-protein kinase ABL1 (P00519 whole entry): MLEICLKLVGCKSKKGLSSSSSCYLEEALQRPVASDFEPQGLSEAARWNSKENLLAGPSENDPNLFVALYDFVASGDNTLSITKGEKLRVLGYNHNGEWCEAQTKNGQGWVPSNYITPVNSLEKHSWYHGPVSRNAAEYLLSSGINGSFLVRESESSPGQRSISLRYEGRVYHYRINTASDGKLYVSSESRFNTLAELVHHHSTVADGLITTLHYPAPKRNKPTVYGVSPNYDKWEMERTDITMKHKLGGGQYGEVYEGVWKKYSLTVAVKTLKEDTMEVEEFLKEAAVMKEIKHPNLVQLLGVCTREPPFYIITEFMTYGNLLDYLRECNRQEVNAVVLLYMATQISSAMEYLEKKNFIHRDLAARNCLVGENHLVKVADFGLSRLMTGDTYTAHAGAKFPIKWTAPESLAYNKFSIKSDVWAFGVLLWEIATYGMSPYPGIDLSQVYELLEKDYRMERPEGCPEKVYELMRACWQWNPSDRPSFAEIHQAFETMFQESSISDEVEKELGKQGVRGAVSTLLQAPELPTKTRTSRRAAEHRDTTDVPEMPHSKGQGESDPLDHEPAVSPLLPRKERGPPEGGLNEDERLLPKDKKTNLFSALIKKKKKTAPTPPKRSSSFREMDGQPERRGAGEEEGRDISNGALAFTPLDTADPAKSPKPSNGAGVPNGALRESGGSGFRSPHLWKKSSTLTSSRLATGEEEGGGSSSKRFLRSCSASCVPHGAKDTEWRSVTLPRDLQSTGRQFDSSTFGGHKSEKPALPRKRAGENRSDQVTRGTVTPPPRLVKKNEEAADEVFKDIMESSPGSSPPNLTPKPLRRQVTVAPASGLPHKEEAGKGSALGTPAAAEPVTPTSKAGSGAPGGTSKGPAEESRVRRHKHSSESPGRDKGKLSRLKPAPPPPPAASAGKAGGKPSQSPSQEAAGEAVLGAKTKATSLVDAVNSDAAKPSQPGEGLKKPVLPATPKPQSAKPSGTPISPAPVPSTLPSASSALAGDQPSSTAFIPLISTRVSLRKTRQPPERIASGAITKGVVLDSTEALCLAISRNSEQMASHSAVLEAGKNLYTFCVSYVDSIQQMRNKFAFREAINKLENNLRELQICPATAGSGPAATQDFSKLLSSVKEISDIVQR
Chain of Leucine-rich repeat serine/threonine-protein kinase 2 (Q5S007 whole entry): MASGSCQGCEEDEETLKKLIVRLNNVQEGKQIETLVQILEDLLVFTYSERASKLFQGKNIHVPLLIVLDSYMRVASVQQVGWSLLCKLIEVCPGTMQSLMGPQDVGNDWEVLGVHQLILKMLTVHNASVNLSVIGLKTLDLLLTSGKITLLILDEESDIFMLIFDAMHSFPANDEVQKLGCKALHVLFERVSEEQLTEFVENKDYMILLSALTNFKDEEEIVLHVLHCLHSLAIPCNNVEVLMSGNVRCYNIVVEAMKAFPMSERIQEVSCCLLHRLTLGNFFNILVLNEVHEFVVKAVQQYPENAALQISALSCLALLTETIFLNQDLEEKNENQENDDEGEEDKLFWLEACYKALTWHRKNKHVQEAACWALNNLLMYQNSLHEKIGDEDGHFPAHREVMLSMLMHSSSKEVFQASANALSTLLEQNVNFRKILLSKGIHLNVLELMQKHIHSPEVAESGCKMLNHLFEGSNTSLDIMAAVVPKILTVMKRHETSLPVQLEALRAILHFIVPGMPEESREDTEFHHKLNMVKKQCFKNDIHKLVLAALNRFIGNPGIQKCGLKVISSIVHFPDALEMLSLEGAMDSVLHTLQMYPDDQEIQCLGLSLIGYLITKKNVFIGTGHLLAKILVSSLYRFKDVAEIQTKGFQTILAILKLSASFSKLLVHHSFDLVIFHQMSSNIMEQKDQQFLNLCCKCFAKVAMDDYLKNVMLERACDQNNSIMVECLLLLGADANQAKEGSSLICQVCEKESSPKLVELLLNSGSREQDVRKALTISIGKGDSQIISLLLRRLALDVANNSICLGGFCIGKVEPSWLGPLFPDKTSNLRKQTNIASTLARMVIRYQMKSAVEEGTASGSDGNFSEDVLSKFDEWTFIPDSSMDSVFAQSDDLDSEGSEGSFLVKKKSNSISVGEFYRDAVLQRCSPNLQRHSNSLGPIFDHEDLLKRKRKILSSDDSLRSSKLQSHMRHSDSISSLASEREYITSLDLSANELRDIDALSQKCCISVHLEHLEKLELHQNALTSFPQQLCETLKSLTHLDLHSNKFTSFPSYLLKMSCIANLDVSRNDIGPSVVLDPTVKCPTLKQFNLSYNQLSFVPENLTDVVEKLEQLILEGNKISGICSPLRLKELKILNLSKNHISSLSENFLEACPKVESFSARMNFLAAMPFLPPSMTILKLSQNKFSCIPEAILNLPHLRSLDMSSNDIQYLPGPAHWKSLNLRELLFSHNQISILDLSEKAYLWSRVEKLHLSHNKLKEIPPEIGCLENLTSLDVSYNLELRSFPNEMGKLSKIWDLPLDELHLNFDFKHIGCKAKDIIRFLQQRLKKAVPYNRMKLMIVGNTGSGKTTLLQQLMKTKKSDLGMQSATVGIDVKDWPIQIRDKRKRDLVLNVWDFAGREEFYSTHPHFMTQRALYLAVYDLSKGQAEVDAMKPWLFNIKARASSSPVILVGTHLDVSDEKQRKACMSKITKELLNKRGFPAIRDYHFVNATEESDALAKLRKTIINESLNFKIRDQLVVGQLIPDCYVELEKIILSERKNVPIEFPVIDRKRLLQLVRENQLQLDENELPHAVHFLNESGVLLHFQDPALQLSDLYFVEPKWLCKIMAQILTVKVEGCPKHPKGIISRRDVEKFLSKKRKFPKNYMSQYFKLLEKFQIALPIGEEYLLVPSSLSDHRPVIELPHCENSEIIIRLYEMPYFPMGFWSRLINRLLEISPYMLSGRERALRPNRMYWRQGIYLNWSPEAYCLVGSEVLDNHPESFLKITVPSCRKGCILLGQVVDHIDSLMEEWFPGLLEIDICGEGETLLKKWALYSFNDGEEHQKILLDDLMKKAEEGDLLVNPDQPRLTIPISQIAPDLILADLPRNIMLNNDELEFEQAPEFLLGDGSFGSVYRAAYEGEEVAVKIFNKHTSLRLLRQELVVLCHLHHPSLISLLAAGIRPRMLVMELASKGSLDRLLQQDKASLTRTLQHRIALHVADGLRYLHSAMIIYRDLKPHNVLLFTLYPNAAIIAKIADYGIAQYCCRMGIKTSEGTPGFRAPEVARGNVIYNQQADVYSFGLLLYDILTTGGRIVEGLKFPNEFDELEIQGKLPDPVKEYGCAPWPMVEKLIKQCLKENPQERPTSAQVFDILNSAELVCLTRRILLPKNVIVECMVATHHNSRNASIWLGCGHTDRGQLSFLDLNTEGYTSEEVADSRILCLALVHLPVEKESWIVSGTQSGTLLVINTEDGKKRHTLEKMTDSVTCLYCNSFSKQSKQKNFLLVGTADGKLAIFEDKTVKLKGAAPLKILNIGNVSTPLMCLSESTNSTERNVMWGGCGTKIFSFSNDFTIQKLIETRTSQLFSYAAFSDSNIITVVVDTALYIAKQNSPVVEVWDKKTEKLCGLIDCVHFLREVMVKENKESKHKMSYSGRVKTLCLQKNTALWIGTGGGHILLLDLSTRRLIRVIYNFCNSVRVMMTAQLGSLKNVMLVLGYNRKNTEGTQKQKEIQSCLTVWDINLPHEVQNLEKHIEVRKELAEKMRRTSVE
Chain of Mitogen-activated protein kinase 14 (Q16539 whole entry): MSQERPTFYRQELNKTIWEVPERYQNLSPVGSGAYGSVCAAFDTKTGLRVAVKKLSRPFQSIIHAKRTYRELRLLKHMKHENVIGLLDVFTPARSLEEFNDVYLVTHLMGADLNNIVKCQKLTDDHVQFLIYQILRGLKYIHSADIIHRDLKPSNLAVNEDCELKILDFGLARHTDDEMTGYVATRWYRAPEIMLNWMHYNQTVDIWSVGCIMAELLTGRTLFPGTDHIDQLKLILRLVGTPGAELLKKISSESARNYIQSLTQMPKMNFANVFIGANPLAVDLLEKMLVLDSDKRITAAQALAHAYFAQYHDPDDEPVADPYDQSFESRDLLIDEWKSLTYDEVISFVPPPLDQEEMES

| Ki [1] | Ki [2] | Ki (Aurora kinase A) | Ki [4] | Ki [5] | Ki [6] | Ki [7] | Ki [8] | Ki [9] | Ki [10] | Ki [11] | Ki [12] | Ki [13] | Ki [14] | Structure (SMILES) | Ki [3] | IC50 [15] | IC50 (Orexin receptor type 2) |
| --- | --- | --- | --- | --- | --- | --- | --- | --- | --- | --- | --- | --- | --- | --- | --- | --- | --- |
| 2 µM (active) | > 6.31 µM (inactive) | > 1.58 µM (inactive) | > 6.31 µM (inactive) | > 2.51 µM (inactive) | > 2.51 µM (inactive) | 0.631 µM (active) | > 3.98 µM (inactive) | 0.398 µM (active) | 0.0631 µM (active) | 0.126 µM (active) | > 3.16 µM (inactive) | 3.98 µM (active) | > 3.98 µM (inactive) | O=C(NCCc1cccs1)N1CC=C(c2c[nH]c3ncccc23)CC1 | 3.98 µM (active) |  |  |
|  |  |  |  |  |  |  |  |  |  |  |  |  |  | Cc1ccnc2ccc(-c3nc4ccccc4o3)cc12 |  | 3.65 µM (active) | > 50 µM (inactive) |
